Results published in ChEMBL document CHEMBL4334438, “Discovery of novel glycogen synthase kinase-3α inhibitors: Structure-based virtual screening, preliminary SAR and biological evaluation for treatment of acute myeloid leukemia” (Eur J Med Chem, 2019).

Experiments:
[1] = target: Calcium/calmodulin-dependent protein kinase type II subunit beta (Homo sapiens) (UniProt Q13554); assay: Inhibition of recombinant human CaMK2beta (1 to 315 residues) assessed as residual activity at 1 uM using […] incubated for 40 mins in presence of [gamma-33ATP] by scintillation counting based radiometry assay relative to control
[2] = target: Serine/threonine-protein kinase 10 (Homo sapiens) (UniProt O94804); assay: Inhibition of recombinant human LOK (1 to 348 residues) assessed as residual activity at 1 uM using RLGRDKYKTLRQIRQ as substrate after 40 mins in presence of [gamma-33ATP] by scintillation counting based radiometry assay relative to control
Homo sapiens = organism: Homo sapiens; assay: Inhibition of recombinant human Plk4 S34T mutant (1 to 273 residues) assessed as residual activity at 1 uM using casein as substrate measured after 40 mins in presence of [gamma33P]ATP by scintillation counting method relative to control
[3] = target: Serine/threonine-protein kinase ULK1 (Homo sapiens) (UniProt O75385); assay: Inhibition of human ULK1 (1 to 314 residues) assessed as residual activity at 1 uM using casein as substrate measured after 40 mins in presence of [gamma33P]ATP by scintillation counting method relative to control
[4] = system: Eukaryotic elongation factor 2 kinase (Homo sapiens), O00418 [H23R]; assay: Inhibition of recombinant human eEF-2K H23R mutant (2 to end residues) assessed as residual activity at 1 uM using RKKFGESEKTKTKEFL as substrate at 40 mins in presence of [gamma-33ATP] by scintillation counting based radiometry assay relative to control
[5] = system: Mast/stem cell growth factor receptor Kit (Homo sapiens), P10721 [V560G]; assay: Inhibition of recombinant human C-Kit V560G mutant (544 to end residues) assessed as residual activity at 1 uM poly(Glu, Tyr) 4:1 as substrate incubated 40 mins in presence of [gamma-33ATP] by scintillation counting based radiometry assay relative to control
[6] = target: Ephrin type-B receptor 4 (Homo sapiens) (UniProt P54760); assay: Inhibition of recombinant human EphB4 (561 to end residues) assessed as residual activity at 1 uM using poly(Glu, Tyr) 4:1 as substrate at 40 mins in presence of [gamma-33ATP] by scintillation counting based radiometry assay relative to control
[7] = target: Vascular endothelial growth factor receptor 2 (Homo sapiens) (UniProt P35968); assay: Inhibition of human KDR (790 to end residues) assessed as residual activity at 1 uM using myelin basic protein as substrate after 40 mins by [gamma-33ATP] radiometric assay relative to control
[8] = target: Dual specificity mitogen-activated protein kinase kinase 2 (Homo sapiens) (UniProt P36507); assay: Inhibition of recombinant human MEK2 assessed as residual activity at 1 uM using MBP as substrate incubated for 40 mins in presence of [gamma-33ATP by scintillation counting based radiometry assay relative to control
[9] = system: Serine/threonine-protein kinase Chk2 (Homo sapiens), O96017 [I157T]; assay: Inhibition of recombinant human CHK2 I157T mutant (5 to end residues) assessed as residual activity at 1 uM using KKKVSRSGLYRSPSMPENLNRPR as substrate incubated for 40 mins in presence of [gamma-33ATP] by scintillation counting based radiometry assay relative to control
[10] = target: Mitogen-activated protein kinase kinase kinase kinase 1 (Homo sapiens) (UniProt Q92918); assay: Inhibition of human HPK1 (1 to 346 residues) assessed as residual activity at 1 uM using myelin basic protein as substrate after 40 mins by [gamma-33ATP] radiometric assay relative to control
[11] = target: Fibroblast growth factor receptor 4 (Homo sapiens) (UniProt P22455); assay: Inhibition of recombinant human FGFR4 (442 to 755 residues) assessed as residual activity at 1 uM using poly(Glu, Tyr) 4:1 as substrate at 40 mins in presence of [gamma-33ATP] by scintillation counting based radiometry assay relative to control
[12] = target: Death-associated protein kinase 3 (Homo sapiens) (UniProt O43293); assay: Inhibition of human ZIPK (1 to 290 residues) assessed as residual activity at 1 uM using KKLNRTLSFAEPG as substrate measured after 40 mins in presence of [gamma33P]ATP by scintillation counting method relative to control
[13] = system: PI3-kinase p110-alpha/p85-alpha (Homo sapiens), P27986+P42336 [E545K]; assay: Inhibition of recombinant full-length human PI3K p110alpha E545K mutant/p85alpha assessed as residual activity at 1 uM assessed as residual activity at 1 uM using phosphatidylinositol-4, 5-bisphosphate as substrate incubated for 40 mins in presence of [gamma33P]ATP by scintillation counting based radiometry assay relative to control; format: protein-complex assay
[14] = system: Serine/threonine-protein kinase D1 (Homo sapiens), Q15139 [UNDEFINED MUTATION]; assay: Inhibition of recombinant full-length human PKCmu R135A mutant assessed as residual activity at 1 uM using KKLNRTLSVA as substrate incubated for 40 mins in presence of [gamma33P]ATP by scintillation counting based radiometry assay relative to control
[15] = target: Serine/threonine-protein kinase PLK2 (Homo sapiens) (UniProt Q9NYY3); assay: Inhibition of human Snk (65 to 409 residues) assessed as residual activity at 1 uM using casein as substrate measured after 40 mins in presence of [gamma33P]ATP by scintillation counting method relative to control
[16] = target: Calcium/calmodulin-dependent protein kinase type II subunit gamma (Homo sapiens) (UniProt Q13555); assay: Inhibition of recombinant human CaMK2gamma (1 to 330 residues) assessed as residual activity at 1 uM […] incubated for 40 mins in presence of [gamma-33ATP] by scintillation counting based radiometry assay relative to control
[17] = target: Tyrosine-protein kinase JAK3 (Homo sapiens) (UniProt P52333); assay: Inhibition of human JAK3 (781 to end residues) assessed as residual activity at 1 uM using GGEEEEYFELVKKKK as substrate after 40 mins by [gamma-33ATP] radiometric assay relative to control
[18] = target: Cytoplasmic tyrosine-protein kinase BMX (Homo sapiens) (UniProt P51813); assay: Inhibition of recombinant full length human BMX assessed as residual activity at 1 uM using poly(Glu, Tyr) 4:1 as substrate incubated for 40 mins in presence of [gamma-33ATP] by scintillation counting based radiometry assay relative to control
Cytoplasmic tyrosine-protein kinase BMX (Homo sapiens), sequence (P51813 whole entry): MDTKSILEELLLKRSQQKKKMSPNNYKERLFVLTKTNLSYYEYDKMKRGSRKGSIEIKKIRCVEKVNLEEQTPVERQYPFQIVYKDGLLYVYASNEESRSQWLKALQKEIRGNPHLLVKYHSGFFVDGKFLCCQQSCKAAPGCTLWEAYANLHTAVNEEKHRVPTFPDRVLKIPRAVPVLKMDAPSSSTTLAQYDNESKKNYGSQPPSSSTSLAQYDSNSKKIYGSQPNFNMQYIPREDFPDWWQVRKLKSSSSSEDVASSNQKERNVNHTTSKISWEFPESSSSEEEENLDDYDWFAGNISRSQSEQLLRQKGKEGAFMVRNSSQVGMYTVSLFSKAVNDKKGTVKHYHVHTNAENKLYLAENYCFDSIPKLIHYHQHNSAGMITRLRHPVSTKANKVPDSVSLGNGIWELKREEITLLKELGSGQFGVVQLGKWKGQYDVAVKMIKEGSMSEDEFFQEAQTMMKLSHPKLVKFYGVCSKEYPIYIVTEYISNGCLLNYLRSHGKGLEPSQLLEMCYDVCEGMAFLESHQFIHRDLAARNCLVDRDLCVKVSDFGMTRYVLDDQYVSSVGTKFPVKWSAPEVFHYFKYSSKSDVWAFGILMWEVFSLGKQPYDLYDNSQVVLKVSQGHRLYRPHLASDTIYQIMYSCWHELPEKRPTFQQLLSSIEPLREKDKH

Calcium/calmodulin-dependent protein kinase type II subunit gamma (Homo sapiens), sequence (Q13555 whole entry, the tested form may be a part): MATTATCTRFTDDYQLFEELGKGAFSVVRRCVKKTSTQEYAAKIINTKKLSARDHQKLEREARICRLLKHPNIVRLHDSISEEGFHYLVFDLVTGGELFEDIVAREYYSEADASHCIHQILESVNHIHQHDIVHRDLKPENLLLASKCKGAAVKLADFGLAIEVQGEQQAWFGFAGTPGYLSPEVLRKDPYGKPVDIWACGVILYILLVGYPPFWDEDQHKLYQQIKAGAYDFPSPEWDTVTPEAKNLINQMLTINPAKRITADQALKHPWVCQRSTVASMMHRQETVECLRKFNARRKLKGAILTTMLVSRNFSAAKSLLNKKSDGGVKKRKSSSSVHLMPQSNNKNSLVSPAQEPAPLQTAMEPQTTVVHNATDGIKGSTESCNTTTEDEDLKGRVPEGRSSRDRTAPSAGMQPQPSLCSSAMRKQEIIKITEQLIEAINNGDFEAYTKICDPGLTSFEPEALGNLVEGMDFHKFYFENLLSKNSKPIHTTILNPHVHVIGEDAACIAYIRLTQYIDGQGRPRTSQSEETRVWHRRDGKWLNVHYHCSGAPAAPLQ
Serine/threonine-protein kinase D1 (Homo sapiens), Q15139 [UNDEFINED MUTATION], sequence (Q15139 whole entry, looked up, stated change not applied, the tested form may be a part): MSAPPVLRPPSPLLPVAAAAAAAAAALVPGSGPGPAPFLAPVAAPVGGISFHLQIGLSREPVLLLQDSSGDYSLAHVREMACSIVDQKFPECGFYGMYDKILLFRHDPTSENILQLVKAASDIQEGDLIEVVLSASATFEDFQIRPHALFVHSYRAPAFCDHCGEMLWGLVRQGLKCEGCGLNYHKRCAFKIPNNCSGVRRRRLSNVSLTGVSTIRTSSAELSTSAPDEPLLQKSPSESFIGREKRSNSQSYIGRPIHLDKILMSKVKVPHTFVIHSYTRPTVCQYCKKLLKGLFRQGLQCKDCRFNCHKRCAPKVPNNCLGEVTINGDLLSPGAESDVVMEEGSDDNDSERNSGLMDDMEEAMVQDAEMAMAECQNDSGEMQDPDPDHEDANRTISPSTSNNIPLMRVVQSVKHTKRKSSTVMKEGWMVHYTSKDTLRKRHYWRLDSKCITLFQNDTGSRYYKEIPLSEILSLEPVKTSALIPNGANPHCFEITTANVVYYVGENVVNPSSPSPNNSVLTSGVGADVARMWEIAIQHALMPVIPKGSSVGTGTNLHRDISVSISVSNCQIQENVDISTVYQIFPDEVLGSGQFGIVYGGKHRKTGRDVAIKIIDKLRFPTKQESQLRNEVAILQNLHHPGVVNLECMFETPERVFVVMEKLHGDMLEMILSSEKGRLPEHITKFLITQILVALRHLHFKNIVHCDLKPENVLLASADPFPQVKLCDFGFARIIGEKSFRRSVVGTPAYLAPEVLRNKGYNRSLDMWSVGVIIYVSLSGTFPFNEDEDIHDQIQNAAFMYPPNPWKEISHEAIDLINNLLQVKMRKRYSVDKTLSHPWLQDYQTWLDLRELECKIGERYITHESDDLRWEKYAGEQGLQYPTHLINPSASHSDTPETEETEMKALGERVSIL
Ephrin type-B receptor 4 (Homo sapiens), sequence (P54760 whole entry): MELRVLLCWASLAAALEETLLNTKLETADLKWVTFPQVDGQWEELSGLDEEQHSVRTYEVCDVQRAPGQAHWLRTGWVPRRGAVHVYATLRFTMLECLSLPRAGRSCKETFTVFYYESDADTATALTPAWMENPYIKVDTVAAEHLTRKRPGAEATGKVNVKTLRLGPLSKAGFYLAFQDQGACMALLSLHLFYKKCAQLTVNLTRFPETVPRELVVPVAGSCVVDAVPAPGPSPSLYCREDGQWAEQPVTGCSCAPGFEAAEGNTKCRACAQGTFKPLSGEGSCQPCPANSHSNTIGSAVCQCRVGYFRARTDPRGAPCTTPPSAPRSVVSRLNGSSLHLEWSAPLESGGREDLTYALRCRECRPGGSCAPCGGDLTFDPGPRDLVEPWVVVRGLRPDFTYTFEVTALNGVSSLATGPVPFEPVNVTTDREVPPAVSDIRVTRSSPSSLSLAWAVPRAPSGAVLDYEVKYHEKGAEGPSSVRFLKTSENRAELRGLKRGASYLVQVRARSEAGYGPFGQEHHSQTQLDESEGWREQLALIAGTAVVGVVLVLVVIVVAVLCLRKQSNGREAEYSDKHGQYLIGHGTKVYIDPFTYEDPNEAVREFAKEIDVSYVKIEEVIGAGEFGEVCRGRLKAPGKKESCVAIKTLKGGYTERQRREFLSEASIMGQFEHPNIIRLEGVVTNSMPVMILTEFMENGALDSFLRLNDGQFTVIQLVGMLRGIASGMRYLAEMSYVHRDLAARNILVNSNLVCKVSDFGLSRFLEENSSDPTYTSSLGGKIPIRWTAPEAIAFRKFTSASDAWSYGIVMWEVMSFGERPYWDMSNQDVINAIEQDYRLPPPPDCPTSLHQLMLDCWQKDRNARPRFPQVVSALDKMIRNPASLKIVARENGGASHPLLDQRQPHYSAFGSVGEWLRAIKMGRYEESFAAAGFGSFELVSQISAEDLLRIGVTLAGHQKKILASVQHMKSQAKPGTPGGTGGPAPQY
Fibroblast growth factor receptor 4 (Homo sapiens), sequence (P22455 22-802 limits assumed): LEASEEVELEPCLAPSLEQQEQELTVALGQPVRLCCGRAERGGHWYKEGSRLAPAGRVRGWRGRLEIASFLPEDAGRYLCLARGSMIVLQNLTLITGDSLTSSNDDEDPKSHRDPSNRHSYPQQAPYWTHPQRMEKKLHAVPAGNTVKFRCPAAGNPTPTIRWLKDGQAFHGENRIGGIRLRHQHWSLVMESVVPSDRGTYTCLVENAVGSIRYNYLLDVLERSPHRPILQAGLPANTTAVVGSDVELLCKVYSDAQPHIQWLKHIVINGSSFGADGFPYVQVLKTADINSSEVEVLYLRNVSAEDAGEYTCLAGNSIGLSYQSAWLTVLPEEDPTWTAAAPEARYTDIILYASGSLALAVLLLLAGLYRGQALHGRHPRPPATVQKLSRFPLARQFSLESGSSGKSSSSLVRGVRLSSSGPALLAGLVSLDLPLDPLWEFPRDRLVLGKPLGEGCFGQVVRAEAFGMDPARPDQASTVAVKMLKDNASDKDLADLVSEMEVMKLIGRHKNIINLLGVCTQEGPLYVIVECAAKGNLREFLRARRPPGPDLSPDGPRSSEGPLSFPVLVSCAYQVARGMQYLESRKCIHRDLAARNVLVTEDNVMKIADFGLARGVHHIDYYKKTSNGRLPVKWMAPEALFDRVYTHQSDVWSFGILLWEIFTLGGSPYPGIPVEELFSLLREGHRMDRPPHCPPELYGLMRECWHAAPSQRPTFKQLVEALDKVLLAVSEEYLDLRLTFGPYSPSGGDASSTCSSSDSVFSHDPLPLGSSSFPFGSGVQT
Serine/threonine-protein kinase PLK2 (Homo sapiens), sequence (Q9NYY3 whole entry, looked up, the tested form may be a part): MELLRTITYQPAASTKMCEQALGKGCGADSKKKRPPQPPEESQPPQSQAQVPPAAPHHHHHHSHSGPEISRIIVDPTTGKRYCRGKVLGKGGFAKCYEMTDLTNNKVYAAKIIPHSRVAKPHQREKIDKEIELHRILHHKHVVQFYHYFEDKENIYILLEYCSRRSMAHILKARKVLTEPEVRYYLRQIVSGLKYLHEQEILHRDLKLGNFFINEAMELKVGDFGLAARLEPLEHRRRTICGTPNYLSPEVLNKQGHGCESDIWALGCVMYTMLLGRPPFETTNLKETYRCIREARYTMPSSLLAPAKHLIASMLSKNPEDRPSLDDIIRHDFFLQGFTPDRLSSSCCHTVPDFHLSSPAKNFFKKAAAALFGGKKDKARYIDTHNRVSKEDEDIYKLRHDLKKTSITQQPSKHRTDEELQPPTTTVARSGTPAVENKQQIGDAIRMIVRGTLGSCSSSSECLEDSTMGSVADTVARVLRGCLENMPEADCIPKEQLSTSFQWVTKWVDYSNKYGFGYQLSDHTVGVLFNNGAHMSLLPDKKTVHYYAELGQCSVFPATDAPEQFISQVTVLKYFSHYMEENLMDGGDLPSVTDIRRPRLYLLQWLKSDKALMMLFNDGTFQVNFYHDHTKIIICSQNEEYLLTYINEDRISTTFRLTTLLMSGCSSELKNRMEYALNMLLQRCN
Dual specificity mitogen-activated protein kinase kinase 2 (Homo sapiens), sequence (P36507 whole entry): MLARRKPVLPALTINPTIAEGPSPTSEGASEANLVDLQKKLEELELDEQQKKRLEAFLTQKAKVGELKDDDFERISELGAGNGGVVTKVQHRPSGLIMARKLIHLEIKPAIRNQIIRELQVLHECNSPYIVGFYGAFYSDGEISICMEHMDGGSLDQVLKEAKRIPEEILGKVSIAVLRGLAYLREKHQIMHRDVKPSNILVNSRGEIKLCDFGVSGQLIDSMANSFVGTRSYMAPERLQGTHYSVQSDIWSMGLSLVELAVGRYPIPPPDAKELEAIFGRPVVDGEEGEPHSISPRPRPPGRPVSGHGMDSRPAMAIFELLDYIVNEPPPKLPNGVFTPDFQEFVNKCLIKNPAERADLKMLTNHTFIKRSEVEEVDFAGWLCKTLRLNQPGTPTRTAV

With `C=CCOC(=O)c1cc(-c2ccc(/C=C3/NC(=S)NC3=O)o2)ccc1Cl` as the compound, how does the Activity [1] read?
The Activity was 74%.

What about the Activity [2] of the same compound?
Its Activity is 95%.

And the Activity (Homo sapiens)?
The Activity was 91%.

And the Activity [3]?
Its Activity is 98%.

And the Activity [4]?
The Activity was 98%.

What about the Activity [5] of the same compound?
Its Activity is 100%.

What about the Activity [6] of the same compound?
The Activity was 94%.

What about the Activity [7] of the same compound?
The Activity was 98%.

And the Activity [8]?
Its Activity is 104%.

And the Activity [9]?
The Activity was 91%.

And the Activity [10]?
The Activity was 98%.

What about the Activity [11] of the same compound?
The Activity was 95%.

What about the Activity [12] of the same compound?
Its Activity is 96%.

What about the Activity [13] of the same compound?
Its Activity is 92%.

What about the Activity [14] of the same compound?
The Activity was 99%.

What about the Activity [15] of the same compound?
The Activity was 91%.

And the Activity [16]?
Its Activity is 68%.

What about the Activity [17] of the same compound?
The Activity was 104%.

What about the Activity [18] of the same compound?
Its Activity is 103%.

With `N=C1NC(=O)/C(=C\c2ccc(-c3cccc([N+](=O)[O-])c3)o2)S1` as the compound, how does the Activity [1] read?
The Activity was 92%.

What about the Activity [2] of the same compound?
Its Activity is 95%.

What about the Activity (Homo sapiens) of the same compound?
Its Activity is 83%.

And the Activity [3]?
The Activity was 98%.

What about the Activity [4] of the same compound?
The Activity was 95%.

What about the Activity [5] of the same compound?
Its Activity is 92%.

What about the Activity [6] of the same compound?
Its Activity is 93%.

And the Activity [7]?
Its Activity is 94%.

What about the Activity [8] of the same compound?
Its Activity is 100%.

What about the Activity [9] of the same compound?
Its Activity is 85%.

And the Activity [10]?
The Activity was 97%.

And the Activity [11]?
The Activity was 106%.

What about the Activity [12] of the same compound?
Its Activity is 93%.

And the Activity [13]?
Its Activity is 100%.

What about the Activity [14] of the same compound?
Its Activity is 97%.

And the Activity [15]?
Its Activity is 92%.

And the Activity [16]?
Its Activity is 86%.

What about the Activity [17] of the same compound?
The Activity was 102%.

What about the Activity [18] of the same compound?
The Activity was 101%.
